# Test results reported in ChEMBL document CHEMBL1201862, “PubChem BioAssay data set” (2004).
# Calls of active or inactive are those of the source. Rule as the data show it, for most assays here: actives have a measured EC50 and inactives only a lower limit.
# Legend:
# [1] = reduced cellular PGC1a acetyl-lysine signal – cell-based, cherry-picked samples, dose response (AID 720514); assay type: functional;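 also: potency may reflect raised or lowered acetylation signal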
# [2] = molecular target: T1, Heat shock factor protein 1 (Mus musculus, UniProt P38532); experiment: enhancement of HSF1-driven luciferase signal – cell-based, NIH3T3, luminescence, dose retest, confirmation (AID 435004); assay type: functional;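 also: stress induced by proteasome inhibitor MG132 added 30 min after compound; luciferase reporter driven by HSF1 response element in NIH3T3 cells; actives raise luminescence as potentiators of the MG132 stress response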
# T1 sequence (P38532 whole entry): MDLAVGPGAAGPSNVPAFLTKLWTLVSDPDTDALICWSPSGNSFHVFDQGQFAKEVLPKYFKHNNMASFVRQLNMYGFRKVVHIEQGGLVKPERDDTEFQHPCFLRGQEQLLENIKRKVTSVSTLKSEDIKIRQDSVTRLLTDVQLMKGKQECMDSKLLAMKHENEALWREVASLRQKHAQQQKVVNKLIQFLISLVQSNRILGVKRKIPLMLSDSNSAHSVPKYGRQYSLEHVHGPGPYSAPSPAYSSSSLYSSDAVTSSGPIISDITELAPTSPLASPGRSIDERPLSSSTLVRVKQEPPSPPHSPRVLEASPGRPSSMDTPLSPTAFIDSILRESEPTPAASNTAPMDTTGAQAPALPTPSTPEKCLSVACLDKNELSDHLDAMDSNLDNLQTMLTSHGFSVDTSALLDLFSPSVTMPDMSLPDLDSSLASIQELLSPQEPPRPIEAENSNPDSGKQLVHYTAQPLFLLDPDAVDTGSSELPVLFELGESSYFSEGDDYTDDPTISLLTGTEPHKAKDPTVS
# [3] = Luminescence Cell-Based Dose Response HTS to Identify Activators of Luciferase Translation or Activity in H4 […] Cells. [Related pubchem assays: 1829 (Project Summary), 1814 (Primary HTS)]; assay type: functional
# [4] = Luminescence Cell-Based Dose Response to Identify Activators of 5'UTR Stem-Loop Driven Prion Protein mRNA Translation in H4-C Neuroglioblastoma Cells. [Related pubchem assays: 1829 (Project Summary), 1814 (Primary HTS)]; assay type: functional
# [5] = Luminescence Cell-Based Dose Confirmation to Identify Activators of 5'UTR Stem-Loop Driven Alpha-Synuclein mRNA Translation in H4 Neuroglioblastoma Cells. [Related pubchem assays: 1829 (Project Summary), 1814 (Primary HTS)]; assay type: functional
# [6] = Luminescence Cell-Based Dose Response to Identify Activators of Luciferase Translation or Activity in H4-C Neuroglioblastoma Cells. [Related pubchem assays: 1829 (Project Summary), 1814 (Primary HTS)]; assay type: functional
# [7] = NIH-3T3 fibroblast cytotoxicity, dose response, cytotoxicity control, cell-based, fluorescence, Alamar Blue, secondary assay (AID 2327); assay type: functional;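 also: NIH-3T3 mouse fibroblasts cultured with fluconazole at 8 µg/mL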
# Protein RecA = molecular target: T2, Protein RecA (Mycobacterium tuberculosis, UniProt P9WHJ3); experiment: Fluorescence Cell-Free Homogeneous Dose Retest to Identify Inhibitors of RecA-Intein Splicing Activity. [Related pubchem assays (depositor defined):AID2097, AID2223, AID489010, AID492950]; assay type: functional
# T2 sequence (P9WHJ3 whole entry): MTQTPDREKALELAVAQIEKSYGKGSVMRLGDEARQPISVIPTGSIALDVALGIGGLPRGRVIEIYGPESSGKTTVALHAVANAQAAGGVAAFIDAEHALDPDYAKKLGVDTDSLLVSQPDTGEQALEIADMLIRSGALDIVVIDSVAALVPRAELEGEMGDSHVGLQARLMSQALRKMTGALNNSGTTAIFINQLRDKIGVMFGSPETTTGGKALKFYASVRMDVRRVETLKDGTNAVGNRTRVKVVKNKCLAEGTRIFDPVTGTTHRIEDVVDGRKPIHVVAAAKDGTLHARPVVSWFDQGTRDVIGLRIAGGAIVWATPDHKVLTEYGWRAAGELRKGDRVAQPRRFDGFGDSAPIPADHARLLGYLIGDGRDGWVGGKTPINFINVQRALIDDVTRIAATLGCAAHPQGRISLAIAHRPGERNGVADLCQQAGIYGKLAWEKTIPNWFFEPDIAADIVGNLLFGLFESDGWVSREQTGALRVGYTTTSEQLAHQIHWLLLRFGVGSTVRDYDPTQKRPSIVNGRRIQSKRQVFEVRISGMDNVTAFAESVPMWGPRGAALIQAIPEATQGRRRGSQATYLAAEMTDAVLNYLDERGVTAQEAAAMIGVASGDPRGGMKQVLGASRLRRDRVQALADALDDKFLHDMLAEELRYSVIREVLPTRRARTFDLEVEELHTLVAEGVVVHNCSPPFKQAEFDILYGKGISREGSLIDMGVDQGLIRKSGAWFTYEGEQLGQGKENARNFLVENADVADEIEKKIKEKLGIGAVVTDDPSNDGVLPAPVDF
# [8] = molecular target: T3, Replicative DNA helicase DnaB (Mycobacterium tuberculosis, UniProt P9WMR3); experiment: DnaB intein splicing inhibitors, dose response, biochemical, cell-free fluorescence (AID 449749); assay type: functional
# T3 sequence (P9WMR3 whole entry): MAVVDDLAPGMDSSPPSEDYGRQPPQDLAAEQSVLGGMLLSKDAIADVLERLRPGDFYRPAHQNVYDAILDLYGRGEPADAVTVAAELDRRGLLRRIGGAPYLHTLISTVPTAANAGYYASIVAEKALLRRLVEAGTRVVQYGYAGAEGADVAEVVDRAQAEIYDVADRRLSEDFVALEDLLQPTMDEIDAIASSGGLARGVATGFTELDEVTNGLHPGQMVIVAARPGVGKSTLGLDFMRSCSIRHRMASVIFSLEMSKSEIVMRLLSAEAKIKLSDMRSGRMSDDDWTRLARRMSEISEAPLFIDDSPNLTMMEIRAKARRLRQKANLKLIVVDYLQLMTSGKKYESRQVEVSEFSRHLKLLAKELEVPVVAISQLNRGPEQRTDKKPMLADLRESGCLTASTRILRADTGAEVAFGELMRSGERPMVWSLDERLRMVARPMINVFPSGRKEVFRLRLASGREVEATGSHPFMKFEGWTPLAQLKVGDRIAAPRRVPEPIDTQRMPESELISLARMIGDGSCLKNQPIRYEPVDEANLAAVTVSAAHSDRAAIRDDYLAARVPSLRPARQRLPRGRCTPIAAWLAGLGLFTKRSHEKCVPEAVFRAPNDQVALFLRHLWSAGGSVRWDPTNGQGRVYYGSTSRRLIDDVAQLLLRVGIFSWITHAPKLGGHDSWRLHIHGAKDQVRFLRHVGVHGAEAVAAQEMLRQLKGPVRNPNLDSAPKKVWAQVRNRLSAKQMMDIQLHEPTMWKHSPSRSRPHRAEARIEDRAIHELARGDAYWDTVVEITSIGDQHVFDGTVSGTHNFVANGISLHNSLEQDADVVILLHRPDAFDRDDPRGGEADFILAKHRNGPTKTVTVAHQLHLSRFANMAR
# [9] = viability loss in HEK293 cells – cell-based, plate reader, cherry-picked samples, cytotoxicity control, dose response (AID 743446); assay type: functional
# [10] = NIH3T3 cell viability loss – ATP luminescence, mouse fibroblasts, counter-screen, dose response (AID 2010); assay type: functional, cell-based;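 also: cells exposed to compound for about 90 hours before reading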
# [11] = fluconazole-exposed Candida albicans growth modulators – fluorescence, retest, confirmation (AID 2467); assay type: functional, cell-based
# [12] = Trypanosoma cruzi growth suppression in host cells – NIH3T3 host cells, beta-gal luminescence, confirmation (AID 2044); assay type: functional, cell-based;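 also: intracellular parasites grown in NIH/3T3 mouse fibroblasts as host cells; luminescent beta-galactosidase reporter signal from transgenic T. cruzi replicating inside host cells; inhibitors lower the luminescence signal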
# cells = assay type: functional
# [13] = THP-1 cell cytotoxicity, dose response, cytotoxicity control for non-replicating M. tuberculosis project (AID 489025); assay type: functional
# [14] = toxicity toward HepG2 liver cells – cell-based, plate reader, cherry-pick, antagonist series, cytotoxicity control, dose response (AID 743416); assay type: functional
# [15] = rise of 2N DNA cells, HeLa – IC50, dose response (AID 1117349); assay type: functional, cell-based
# [16] = rise of 4N DNA cells, HeLa – IC50, dose response (AID 1117351); assay type: functional, cell-based
# Major prion protein = Major prion protein (Homo sapiens, UniProt P04156); assay type: functional, cell-based
structure (smiles),measurement,setting,value
Cc1cc2c(c(/C=C/C(=O)c3ccccc3)c1)OC1(C=C2)Oc2ccccc2C(=O)N1C (stereo not given),AC50,[1],2.26 µM (active)
same,EC50,[2],3.56 µM (active)
O=C1C2C3CCC(C3)C2C(=O)N1c1ccc(OS(=O)(=O)c2ccccc2)cc1 (stereo not given),EC50,[3],< 0.1 µM (inconclusive)
same,EC50,[4],0.408 µM (active)
same,EC50,[5],0.366 µM (active)
same,EC50,[6],0.36 µM (active)
Cc1noc2ncnc(Sc3ccc(Br)cc3)c12,EC50,[7],7.6 µM (inconclusive)
same,EC50,Protein RecA,16.2 µM (active)
same,AC50,[8],4.02 µM (active)
same,AC50,[9],> 52 µM (inactive)
same,EC50,[10],> 60 µM (inconclusive)
same,EC50,[11],> 38 µM (not active)
same,EC50,[2],6.64 µM (active)
same,EC50,[12],1.96 µM (active)
same,IC50,cells,11.6 µM (active)
same,CC50,[13],> 40 µM (active)
same,AC50,[14],25.4 µM (active)
O=C(Cc1ccccn1)NCC[C@H]1CC[C@@H](NC(=O)Nc2ccc(C(F)(F)F)cc2)[C@@H](CO)O1,AC50,[1],34.6 µM (active)
COCCn1c(C)cc(C(=O)CSc2nc(O)c3ccccc3n2)c1C,EC50,[3],< 0.1 µM (active)
same,EC50,[4],0.269 µM (active)
same,EC50,[5],0.371 µM (active)
same,EC50,[6],0.326 µM (active)
[O-][n+]1ccccc1SSc1cccc[n+]1[O-] [DIPYRITHIONE],IC50,[15],> 10 µM (inactive)
same,IC50,[16],> 10 µM (inactive)
CC(Sc1ccc2ccccc2n1)C(=O)O (stereo not given),IC50,Major prion protein,1.88 µM (active)
